Entries after “also recorded” stand apart in the source; their conditions may differ.
What was measured:
HREs = assay: Tube formation assay (Matrigel); assay type: cell-based, human; settings: 24 h of treatment with CM of modulated MSCs
Protocol: Corning Matrigel Matrix (10 mg protein/mL) Growth Factor Reduced (Corning Inc., Cat. No. 354230, Corning, NY, USA) was used for tube formation assay. Then, 289 μL of cold (4° C.) Matrigel per well was added into chilled 24-well flat-bottom tissue culture plate (USA Scientific Inc., Ocala, FL, USA) and polymerized for 1 h at 37° C., 5% CO2 incubator. HREs were trypsinized and separated into different groups. Each group of cells was centrifuged and cell pellets were resuspended in regular media without FBS, same media with 1:1 mixture of FBS free regular media and CM of vehicle- or treated-MSCs. Then 300 μL of the cell suspension was added onto each well of Matrigel coated 24-well culture plate and incubated at 37° C. After 24-h, cells forming tube structures were analyzed by microscopy. Cells in five replicate fields of triplicate wells were digitally photographed with an EVOS microscope (Thermo Fisher Scientific Inc., Waltham, MA, USA). The images for Tube formation assay were analyzed using Angiogenesis analyzer for imageJ. An area of 1.8 mm2 from each well was analyzed with imageJ ver. 1.53c, and 3 wells were analyzed per group. […] The total tubular length was calculated as the average of the total tubule length from three wells, five random fields per well.

p75^NTR on MSCs = biological target: T1, p75^NTR on MSCs (Mus musculus, UniProt Q9Z0W1); assay: MSCs secretome: Western blotting of MSCs conditioned medium (CM); assay type: cell-based; settings: Western blot of CM vs control CM; LM11A-31: 200 nM, 12 h; or p75NTR siRNA silencing
T1 construct: endogenous in cells; host or cells: GFP-labeled mouse mesenchymal stem cells (passages 5-9)
T1 sequence (Q9Z0W1 32-427): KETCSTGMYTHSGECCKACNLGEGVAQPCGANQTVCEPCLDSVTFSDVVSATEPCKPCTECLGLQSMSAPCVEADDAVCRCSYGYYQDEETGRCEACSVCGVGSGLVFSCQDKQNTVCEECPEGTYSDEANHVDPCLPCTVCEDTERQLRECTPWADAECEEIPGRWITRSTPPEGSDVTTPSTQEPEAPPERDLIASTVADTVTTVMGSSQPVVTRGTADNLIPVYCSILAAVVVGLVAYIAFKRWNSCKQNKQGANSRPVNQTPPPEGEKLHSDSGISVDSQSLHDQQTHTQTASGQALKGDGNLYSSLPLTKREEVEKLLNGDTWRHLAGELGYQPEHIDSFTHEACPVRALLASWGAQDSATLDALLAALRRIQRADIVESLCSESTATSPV
Protocol: GFP-labeled mouse MSCs were obtained as a kind gift from Dr. William D. Hill (MUSC, Charleston, SC) and used between passages 5-9. MSCs cells were cultured in high glucose DMEM (4.5 g/L D-glucose, Thermo-Fisher Grand Island, NY, USA) supplemented with 10% FBS and 1% penicillin/streptomycin at 37° C. and 5% CO2. Knocking down p75NTR expression was performed according to manufacturer's instructions (Santa Cruz Biotechnology Inc., Dallas, TX, USA). Briefly, MSCs were shifted to antibiotic-free medium over night when 60-80% confluent. Cells were transfected with Si-RNA against p75NTR receptor (sc-37268) or scrambled (sc-37007) with the aid of lipofectamine transfection reagent (sc-29528) for 6 h. DMEM medium containing 2× of FBS and antibiotic was added on top of pure transfection medium for an extra 12 h. Next, transfection medium was removed and cells were allowed to recover in 1×DMEM medium for 6 h. For in vivo studies, cells were collected in sterile PBS (50,000 cells/μL) for intravitreal injection 48 h after I/R. For additional set of experiments, MSCs were treated with the p75NTR modulator (LM11A-31, 200 nM). Confluent MSCs (80% confluent) were treated with LM11A-31 or its vehicle for 12 h. Then, condition media were collected as well as cell lysates using mirVANA™ PARIS™ Kit (Ambion Inc., Austin, TX, USA), according to manufacturer's instructions.

p75^NTR = biological target: T2, p75^NTR (Mus musculus, UniProt Q9Z0W1); assay: Interventional treatment of STZ-diabetic mice (16-weeks diabetes): kidney and systemic readouts; assay type: in vivo; settings: 50 mg/Kg, po, QOD, 12 weeks
T2 construct: Interventional treatment with the p75^NTR modulator LM11A-31 (50 mg/Kg, po, QOD) for 12 weeks; from tissue; host or cells: living STZ-diabetic mice (kidney, urine, blood, body weight)
T2 sequence (Q9Z0W1 32-427): T1 sequence (Q9Z0W1 32-427)

[1] = cited from earlier work
p75NTR = settings: cultures of p75NTR−/− neurons; cited from earlier work
[2] = cited from earlier work; remark: listed apart in the source

Compound: CCC(C)C(N)C(=O)NCCN1CCOCC1 (centres unmarked) [LM11A-31, 2-amino-3-methyl-pentanoic acid [2-morpholin-4-yl-ethyl]-amide]
- number of junction points, increase (HREs): 1.5 Fold
- tube length, increase (HREs): 1.4 Fold
- NGF in MSCs conditioned medium, increase (p75^NTR on MSCs): ~4 Fold
- SDF-1α in MSCs conditioned medium, increase (p75^NTR on MSCs): ~14.9 Fold
- VEGF-A in MSCs conditioned medium, increase (p75^NTR on MSCs): 1.6 Fold
- UAER normalized to creatinine (p75^NTR; control animals): did not alter baseline
- blood glucose level (p75^NTR; control or diabetic animals): did not alter
- renal fibrotic markers (Fibronectin, alpha-SMA) (p75^NTR; controls): did not alter base-line
- Urinary albumin excretion rate (UAER) normalized to creatinine (p75^NTR; diabetic animals): significantly improved; also recorded: increase
- body weight (p75^NTR; diabetic animals): preserved the weight
- glomeruli areas (PAS staining) (p75^NTR; diabetic animals): significantly preserved glomeruli areas back to normal glomeruli size
- glomeruli size (Trichome staining) (p75^NTR; diabetic animals): preserved glomeruli size
- kidney NGF levels, Western Blot (p75^NTR; diabetic animals): restored
- kidney TNF-α expression (inflammatory marker), Western Blot (p75^NTR; diabetic animals): significantly prevented the increase; also recorded: significantly improved
- kidney p-JNK (apoptotic marker), Western Blot (p75^NTR; diabetic animals): significantly prevented the increase; also recorded: significantly improved
- ratio of kidney weight to body weight (p75^NTR; diabetic animals): significantly improved
- renal TGF-beta expression (p75^NTR; diabetic animals): significantly prevented the increase; also recorded: significantly improved
- renal and urinary inflammation (kidney IL-6 and IL-1β mRNA, urine IL-1β by ELISA) (p75^NTR; diabetic animals): significantly prevented the increase
- renal fibrosis (Trichome staining) (p75^NTR; diabetic animals): significantly improved fibrosis
- renal fibrotic markers (Fibronectin, alpha-SMA), Western Blot (p75^NTR; diabetic animals): significantly prevented the increase; also recorded: significantly improved
- p75^NTR expression in kidney sections (immunohistochemistry) (p75^NTR; diabetic or control animals): did not alter
- ratio of kidney weight to body weight (p75^NTR; treated controls): did not alter the baseline
- blood-brain barrier crossing ([1]; 50 mg/kg, oral administration): cross the blood-brain barrier
- oral bioavailability ([1]; in vivo, po): orally bioavailable
- specificity to p75NTR: protective activity (p75NTR): complete loss of its protective activity
- water solubility [2]: water-soluble

From patent US20240050436A1, “COMPOSITIONS AND METHODS USED FOR RETINAL ISCHEMIA OR DIABETES” (The United States GOVERNMENT As Represented By The …, priority 2021, published 2024)
